One experiment concerns the target Estrogen receptor beta (Homo sapiens, UniProt Q92731).
The target of a further experiment is T1, Estrogen receptor (Homo sapiens, UniProt P03372).
T1 sequence (P03372 whole entry): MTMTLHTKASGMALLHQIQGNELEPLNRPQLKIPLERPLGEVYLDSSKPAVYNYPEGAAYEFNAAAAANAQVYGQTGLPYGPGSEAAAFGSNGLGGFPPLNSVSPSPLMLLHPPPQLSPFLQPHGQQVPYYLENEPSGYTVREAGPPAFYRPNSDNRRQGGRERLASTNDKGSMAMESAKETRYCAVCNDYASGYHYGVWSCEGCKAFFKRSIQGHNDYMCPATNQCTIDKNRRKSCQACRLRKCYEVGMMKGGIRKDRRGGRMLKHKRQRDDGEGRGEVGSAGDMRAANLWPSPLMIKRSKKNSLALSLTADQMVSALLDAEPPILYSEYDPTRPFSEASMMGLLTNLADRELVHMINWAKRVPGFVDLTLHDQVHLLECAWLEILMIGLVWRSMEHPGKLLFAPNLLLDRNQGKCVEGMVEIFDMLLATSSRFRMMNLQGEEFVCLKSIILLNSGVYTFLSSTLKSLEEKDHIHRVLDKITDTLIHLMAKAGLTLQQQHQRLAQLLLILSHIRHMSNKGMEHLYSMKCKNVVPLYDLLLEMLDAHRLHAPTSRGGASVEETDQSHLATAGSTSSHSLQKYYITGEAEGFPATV

The source of these data is ChEMBL document CHEMBL1139570, “Estrogen receptor ligands: design and synthesis of new 2-arylindene-1-ones” (Bioorg Med Chem Lett, 2005).

Molecules are shown by their SMILES. pIC50: −log10 of the molar value.

As usually defined, the pIC50 is −log10 of the IC50, conventionally taken in molar units. Low values mean a large IC50, high ones a small IC50.

Chain of Estrogen receptor beta (Q92731 whole entry): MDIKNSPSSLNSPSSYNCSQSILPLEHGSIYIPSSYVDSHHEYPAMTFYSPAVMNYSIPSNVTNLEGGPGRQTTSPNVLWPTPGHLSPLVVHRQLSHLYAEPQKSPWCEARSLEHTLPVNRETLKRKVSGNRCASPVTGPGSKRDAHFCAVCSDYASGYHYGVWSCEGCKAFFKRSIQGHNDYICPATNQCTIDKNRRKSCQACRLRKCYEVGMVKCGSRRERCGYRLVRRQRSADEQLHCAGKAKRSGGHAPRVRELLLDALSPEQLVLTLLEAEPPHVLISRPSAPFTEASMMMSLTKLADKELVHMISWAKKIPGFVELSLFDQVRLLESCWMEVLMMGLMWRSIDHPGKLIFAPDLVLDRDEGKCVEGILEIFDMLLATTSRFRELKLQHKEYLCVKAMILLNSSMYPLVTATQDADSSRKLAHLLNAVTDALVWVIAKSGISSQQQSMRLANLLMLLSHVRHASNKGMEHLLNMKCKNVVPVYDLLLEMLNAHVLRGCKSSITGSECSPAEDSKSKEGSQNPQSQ
Description for Estrogen receptor beta: Inhibition of human estrogen receptor beta

As to `NC1=C(c2ccc(O)cc2)C(=O)c2cc(O)ccc21`, the pIC50 against Estrogen receptor beta is 5.94; at Estrogen receptor, < 5.30.

Regarding `CSC1=C(c2ccc(O)cc2)C(=O)c2ccc(O)cc21`, the pIC50 was 8.89 against Estrogen receptor beta and 8.51 on Estrogen receptor.

`O=C1C(c2ccc(O)cc2)=C(O)c2cc(O)cc(O)c21`: on Estrogen receptor, the pIC50 was < 5.30.

For the molecule `O=C1C(c2ccc(O)cc2)=C(O)c2ccc(O)cc21`, the pIC50 at Estrogen receptor was < 5.30.

For the molecule `CC/N=C1/C(c2ccc(O)cc2)=C(O)c2cc(O)cc(O)c21`, the pIC50 against Estrogen receptor beta was 5.57; at Estrogen receptor it was < 5.30.

Take `COc1ccc2c(c1)C(Br)=C(c1ccc(O)cc1)C2=O`: the pIC50 was 6.70 against Estrogen receptor beta and 5.74 on Estrogen receptor.

For `O=C1C(c2ccc(O)cc2)=C(Br)c2cc(O)ccc21`, the pIC50 on Estrogen receptor beta is 8.77; on Estrogen receptor it was 8.28.

Consider `O=C1C(c2ccc(O)cc2)=C(c2ccccc2)c2cc(O)ccc21`, for which the pIC50 against Estrogen receptor beta and on Estrogen receptor was 8.00 each time.

In the case of `CCSC1=C(c2ccc(O)cc2)C(=O)c2ccc(O)cc21`, the pIC50 against Estrogen receptor is 6.32.

`O=C1C(c2ccc(O)cc2)=C(c2ccccc2)c2ccc(O)cc21`: the pIC50 on Estrogen receptor beta and against Estrogen receptor was 8.05 throughout.

On to `CCSC1=C(c2ccc(O)cc2)C(=O)c2cc(O)cc(O)c21`, for which the pIC50 on Estrogen receptor beta is 6.82; on Estrogen receptor, 6.24.

`CC1=C(c2ccc(O)cc2)C(=O)c2c(O)cc(O)cc21` gave a pIC50 against Estrogen receptor beta of 8.62.
